The source of these data is patent publication US20250268928A1, “USE OF BACTERIORUBERINS AND GLYCOSYL DERIVATIVES THEREOF TO PREVENT AND TREAT DISEASES INVOLVING DYSREGULATED PROTEIN AGGREGATION, SUCH AS NEURODEGENERATIVE DISEASES” (NAOS INSTITUTE OF LIFE SCIENCE, priority 2020, published 2025).

The test system of one experiment is Murine cortical neurons. Description: Neural network integrity of cortical neurons damaged by glutamate (MAP-2 immunolabeling). It is filed as cell-based. The note with it: 48 hours after, FIG. 4. Here is the method:
(§1) Murine cortical neurons were cultured as described by Callizot et al., 2013. The cells were mechanically dissociated by three forced passages through the tip of a 10 mL pipette. The cells were then centrifuged at 515×g for 10 minutes at 4° C. The supernatant was removed and the pellet was taken up in a defined culture medium constituted by Neurobasal medium with a 2% solution of B27 supplement, 2 mmol/litre of L-glutamine, 2% of PS solution and 10 ng/ml of BDNF. The viable cells were counted in a Neubauer cytometer, using the trypan blue exclusion test. The cells were seeded in a density of 25000 per well in a 96-well plate pre-coated with poly-L-lysine and were cultured at 37° C. in a CO2 incubator (5%). The medium was changed every two days. The experiments were subsequently carried out on 96-well plates (n=6 culture wells per condition). In the 96 wells of each plate, only 60 were used. The wells in the first and last rows and columns were not used in order to avoid any edge effects and were filled with sterile water.
(§2) The compounds to be tested were dissolved in DMSO and the concentration was adjusted in order to ensure a concentration of DMSO in the culture medium of 0.1%. […]
(§3) For each condition, 30 images per well were automatically recorded using ImageXpress (Molecular Devices) at 20× magnification. […]
(§4) The data were expressed as a percentage of the control. […]

The next experiment deals with tau protein. As to the kind of experiment: Hyperphosphorylation of tau protein (AT100) in cortical neurons damaged by glutamate. The note with it: % of the negative control (100%=value 0); glutamate 20 μM, 20 min; 48 hours after; SBE 1 μm, BDNF 50 ng/mL; FIG. 5. It is filed as cell-based, Murine. Here is the method:
as §1, §2, §3, §4

Experiment [1] concerns the target T1, Bovine alkaline phosphatase (AP) (Bos taurus, UniProt P19111).
T1 construct: purchased Sigma P0114
As to the kind of experiment: AP-heat test (protection of alkaline phosphatase against heat denaturing, chaperone effect). It is filed as biochemical. The note with it: 55° C. for 1 hour; all test concentrations (20 μM, 10 μM, 5 μM, 2.5 μM, 1.25 μM); FIG. 2. An excerpt: The aim of this study was to compare the protein protection capacities of the various components of an extract of carotenoids of the actinobacterium A. agilis separated by chromatography and HPLC. More specifically, we tested all the major fractions to assess their ability to protect the enzyme alkaline phosphatase: • against denaturing via their effect of protecting proteins from denaturing (AP-heat test) (chaperone effect) • against oxidation (APox test) (Protective effect against oxidative stress).
This test is derived from a modification of the APox test for measuring the protection potential of proteins not just against oxidative stress, but against denaturing (heat stress). In fact, under the effect of heat, proteins are denatured and enzymes lose their activity. […]
• Bovine alkaline phosphatase (AP) (Sigma P0114) • Liquid substrate of alkaline phosphatase (Sigma P7998) • Heating block • Flat-bottomed 96-well plate • Plate reader at 405 nm […]
Read OD at 405 nm for 20 min at 37° C.
The protective power of a “molecule X” against denaturing (PPX) is calculated by taking the ratio of the activity of alkaline phosphatase (PA) at 55° C. […]
The activity of the enzyme for each condition is calculated by taking the mean of the optical density values measured at 405 nm for the replicates, from which values the mean value of what are known as the “blank” wells (reagents alone) is subtracted, i.e.: […]

In experiment [2] the target is T1, Bovine alkaline phosphatase (AP). As to the kind of experiment: APox test (protection of alkaline phosphatase against oxidative stress). It is filed as biochemical. The note with it: hydrogen peroxide/FeO4S, 15 min at 37° C.; all test concentrations (20 μM to 1.25 μM); FIG. 3. From the text:
The aim of this study was to compare the protein protection capacities of the various components of an extract of carotenoids of the actinobacterium A. agilis separated by chromatography and HPLC. More specifically, we tested all the major fractions to assess their ability to protect the enzyme alkaline phosphatase: • against denaturing via their effect of protecting proteins from denaturing (AP-heat test) (chaperone effect) • against oxidation (APox test) (Protective effect against oxidative stress). This test is described in patent application FR 3002544 A1 and measures the ability of a substance to protect the enzyme alkaline phosphatase from oxidative stress. • Bovine alkaline phosphatase (AP) (Sigma P0114) • Liquid substrate for AP (Sigma P7998) • 30% hydrogen peroxide • FeO4S solution (30 mg in 1 mL H2O) • Flat-bottomed 96-well plate • Plate reader at 405 nm The Following were Deposited in Each Well: • 10 μL of AP diluted to 10^−5 in 10^−2M MgSO4. • 4 μL of test molecule, solvent (negative control) or H2O (positive control)+6 μL of H2O • 30 μL of a hydrogen peroxide solution (from a stock solution composed of 940 μL H2O+40 μL 30% H2O2+20 μL 10^−2 FeO4S) or 30 μL of H2O (positive control) • Allow to incubate for 15 min at 37° C. • Add 50 μL of liquid substrate. • Read OD at 405 nm for 20 min at 37° C. […]

T1 sequence (P19111 20-506 limits assumed): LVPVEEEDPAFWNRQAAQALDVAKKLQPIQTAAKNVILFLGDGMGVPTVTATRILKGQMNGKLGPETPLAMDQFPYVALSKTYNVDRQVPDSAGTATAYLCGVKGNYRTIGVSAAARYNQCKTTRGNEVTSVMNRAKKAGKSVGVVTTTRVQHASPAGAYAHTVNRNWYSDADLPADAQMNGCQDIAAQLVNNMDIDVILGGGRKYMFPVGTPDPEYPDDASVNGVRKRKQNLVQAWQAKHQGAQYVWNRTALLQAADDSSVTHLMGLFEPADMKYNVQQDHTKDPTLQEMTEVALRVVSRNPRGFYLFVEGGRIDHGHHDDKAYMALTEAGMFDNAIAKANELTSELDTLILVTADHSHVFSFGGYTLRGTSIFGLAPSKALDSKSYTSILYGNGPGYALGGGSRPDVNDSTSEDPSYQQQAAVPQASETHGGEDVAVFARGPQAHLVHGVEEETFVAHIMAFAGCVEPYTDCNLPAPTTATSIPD

Take `N[C@@H](CCC(=O)O)C(=O)O` [Glutamate, reference compound]: the “reduction in neural network density” value with Murine cortical neurons (glutamate poisoning alone (20 μM, 20 min)/vehicle) amounted to 60%. The “hyperphosphorylation of tau protein (AT100 zone, tau/MAP-2 overlap)” value in the experiment on tau protein was “+193%”.

In the case of Diglycosylated bacterioruberin [BR-DiG], in experiment [1], the “percentage protection against heat (AP-heat test)” value is “protect the protein more effectively than the BR itself”. In addition, the “percentage of protection against oxidative stress (APOX test)” value in experiment [2] is reported as “particularly pronounced”. For the molecule “Monoglycosylated bacterioruberin [BR-MonoG]”, the “percentage protection against heat (AP-heat test)” value in experiment [1] is listed as “protect the protein more effectively than the BR itself”.

B1: BDNF: neurotrophin used as a positive control (protein, UniProt P23560 19-247, looked up)
Neurotrophic factor BDNF …: APMKEANIRGQGGLAYPGVRTHGTLESVNGPKAGSRGLTSLADTFEHVIEELLDEDQKVRPNEENNKDADLYTSRVMLSSQVPLEPPLLFLLEEYKNYLDAANMSMRVRRHSDPARRGELSVCDSISEWVTAADKKTAVDMSGGTVTVLEKVPVSKGQLKQYFYETKCNPMGYTKEGCRGIDKRHWNSQCRTTQSYVRALTMDSKKRIGWRFIRIDTSCVCTLTIKRGR
With B1, the “total neural network (MAP-2 positive neural length)” value in the experiment with Murine cortical neurons (percentage of control, glutamate 20 μM, 20 min, 1 hour pre-incubation, SBE 1 μm, BDNF 50 ng/mL) is listed as 85%. Moreover, in the experiment on tau protein, the “hyperphosphorylation of tau protein (AT100 zone, tau/MAP-2 overlap)” value was “+121%”.
